Measured values taken from patent publication US11364237B2, “Composition for inhibiting cancer metastasis and treating cancer” (ONCOCROSS CO., LTD., priority 2017, dated 2022).

Key:
[1] = system: colorectal cancer cell lines CT26, HCT116 and SW480; assay: MTT cell survival rate, colorectal cancer cell lines; format: cell-based, mouse (CT26), human (HCT116; conditions: single treatment, 24, 48 and 72 hours; for concentration at which toxicity was shown (cell survival rate): FIGS. 1 to 3
Description: In order to confirm the effect of chlorphenesin (named as OC-201), chloroquine (named as OC-202) and chloropyrazine (named as OC-203) alone on the survival rate of colorectal cancer cells, cell survival rate was evaluated for the colorectal cancer cell lines CT26, HCT116 and SW480 cell lines by MTT assay (Promega, Ltd.) according to the manufacturer's protocol. […] The pre-treated cell lines were incubated with 5 mg/mL MTT for 4 hours. Thereafter, the medium was removed, and 150 μL of the solubilization solution and the stop solution were added, followed by incubation at 30° C. for 4 hours. The absorbance of the reaction solution was measured at 570 nm. The cell survival rate was calculated using the following Equation 1. Cell survival rate=absorbance of experimental group (at 570 nm)/absorbance of control (at 570 nm)×100(%) [Equation 1]
The pre-treated cell lines were incubated with 5 mg/mL MTT for 4 hours. Thereafter, the medium was removed, and 150 μL of the solubilization solution and the stop solution were added, followed by incubation at 30° C. for 4 hours. The absorbance of the reaction solution was measured at 570 nm. The cell survival rate was calculated using the above Equation 1.

[2] = system: pancreatic cancer cell lines Aspc-1, MIAPaCA2 and Panc-1; assay: MTT cell survival rate, pancreatic cancer cell lines; format: cell-based, human; conditions: for cytotoxicity (cell survival rate), single administration: up to 1 mM chlorphenesin, up to 100 μM chloropyrazine, 24, 48, 72 hours, FIGS. 30 and 32
Description: The pre-treated cell lines were incubated with 5 mg/ml MTT for 4 hours. Thereafter, the medium was removed, and 150 μL of the solubilization solution and the stop solution were added, followed by incubation at 30° C. for 4 hours. The absorbance of the reaction solution was measured at 570 nm. The cell survival rate was calculated using the equation 1 as described above.
(§1) The pre-treated cell lines were incubated with 5 mg/ml MTT for 4 hours. Thereafter, the medium was removed, and 150 μL of the solubilization solution and the stop solution were added, followed by incubation at 30° C. for 4 hours. The absorbance of the reaction solution was measured at 570 nm. The cell survival rate was calculated using the above equation 1.

SNU1079 = assay: MTT cell survival rate; format: cell-based, human; conditions: FIG. 47
Description: (§2) The pre-treated cell lines were incubated with 5 mg/ml MTT for 4 hours. Thereafter, the medium was removed, and 150 μL of the solubilization solution and the stop solution were added, followed by incubation at 30° C. for 4 hours. The absorbance of the reaction solution was measured at 570 nm. The cell survival rate was calculated using equation 1 as described above.

SNU 308 cell line = assay: MTT cell survival rate; format: cell-based, human; conditions: after 48 hours, FIG. 47
Description: as §2

[3] = system: biliary tract cancer cell lines SNU1079 and SNU308; conditions: human, 48 h
Description: as §2, §1

SW480 cell line = assay: Transwell migration assay, chlorphenesin alone; format: cell-based, human; conditions: 18 hours, laminin in lower well, FIGS. 6 and 7
CT26 cell-induced tumors = assay: CT26 tumor animal model, tumor growth and lung metastasis; format: in vivo, Balb/c mice
Description: Specifically, 60 Balb/c mice were subcutaneously inoculated once with 100 μL of CT26 cell suspension (1×10^7 cells/mL) to induce tumors, thereby producing a xenograft animal model. […] For the chlorphenesin single administration, 10 animal models were abdominally administered with 10 mg/kg chlorphenesin (3 times a week) for 5 weeks or 14 animal models were orally administered with 20 mg/kg chlorphenesin (5 times a week) for 5 weeks. 14 animal models were administered with the same dose of PBS as chlorphenesin as a negative control. […] The body weight of the animal models was measured once a week, and the tumor size was measured once a week from the day of drug administration. After 6 weeks, animal models were anesthetized with ether, and tumors and lungs were collected.

[4] = system: colorectal cancer cells CT26 and HCT116; assay: Transwell migration assay at low concentration; format: cell-based, mouse (CT26), human (HCT116); conditions: 1 μM chlorphenesin; 8 hours; FIG. 58
CT26 cell line = assay: Transwell migration assay, chlorphenesin alone; format: cell-based, mouse; conditions: 18 hours, FIGS. 10 and 11
[5] = system: biliary tract cancer cell line SNU1079; assay: Transwell migration assay with Combination Index; conditions: 18 hours, FIGS. 51 and 52
HCT116 cell line = assay: Transwell migration assay, chlorphenesin alone; format: cell-based, human; conditions: 18 hours, FIGS. 8 and 9
[6] = system: colorectal cancer cell line CT26; assay: Wound healing assay at low concentration; format: cell-based, mouse; conditions: 1 μM chlorphenesin; 24 hours; FIG. 59
Description: Wound healing analysis was performed to measure cell motility. […] After incubation of the cells for 24 hours in the presence or absence of chlorphenesin (1 μM), a photograph of the dyed monolayers was taken with a microscope.

[7] = system: colorectal cancer cell lines HCT116; assay: Soft agar colony formation assay (anchorage independent growth), chlorphenesin alone; format: cell-based, human; conditions: 3 weeks, FIG. 27
[8] = system: colorectal cancer cell line HCT116; assay: Wound healing assay; conditions: 0, 8 and 24 hours, FIGS. 21 to 23

Clc1cnccn1 [chloropyrazine]
concentration at which not toxic (cell survival rate) ([1]; FIG. 3): ≤ 100 µM | cytotoxicity (cell survival rate), single administration [2]: did not show cytotoxicity even at high doses

CCN(CC)CCCC(C)Nc1ccnc2cc(Cl)ccc12 (stereo not drawn) [chloroquine]
concentration at which toxicity was shown (cell survival rate) [1]: more than 10 μM | concentration at which cytotoxicity was shown (SNU1079; after 48 hours): ≥ 25 µM | concentration at which cytotoxicity was shown (SNU1079; for 24 hours): ≥ 50 µM | concentration at which cytotoxicity was shown (SNU 308 cell line): ≥ 50 µM | concentration at which cytotoxicity was shown ([2]; single administration, FIG. 31): ≥ 50 µM

OCC(O)COc1ccc(Cl)cc1 (stereo not drawn) [chlorphenesin]
concentration at which apparent cytotoxicity was shown [3]: ≥ 1000 µM | concentration at which cell migration was significantly reduced (SW480 cell line): ≥ 25 µM | tumor size compared with the control groups (CT26 cell-induced tumors; chlorphenesin 20 mg/kg orally, 5 times a week for 5 weeks, FIG. 61): reduction in the tumor size | cancer metastasis to lungs compared to control groups (CT26 cell-induced tumors; chlorphenesin-treated group, 5 weeks dosing, lungs collected after 6 weeks, FIG. 60): no cancer metastasis to lungs | concentration at which toxicity was shown (cell survival rate) [1]: more than 500 μM | invasion ability and migration ability of the cells compared to the control [4]: significantly reduced | concentration at which cell migration was specially decreased (CT26 cell line): ≥ 250 µM | concentration at which cell migration was decreased [5]: ≥ 25 µM | concentration at which the decrease of cell migration was remarkable [5]: ≥ 100 µM | cytotoxicity (cell survival rate), single administration [2]: did not show cytotoxicity even at high doses | concentration at which cell migration was specially decreased (HCT116 cell line): ≥ 250 µM | mobility of the CT26 cell line (wound healing) [6]: reduced | concentration at which colony forming ability was decreased [7]: ≥ 250 µM | concentration at which migration was decreased (wound healing) [8]: ≥ 25 µM
